Measurements reported in the kinase profiling compilation of Christmann-Franck et al. (2016).
Values belong to the compound of their own block, whether it stands above or below them.

Tests used:
Assay in all cases: KINOMEscan competition binding
Conditions in all cases: compound 10.0 µM
MAPK8 (human) = MAPK8 (human) (UniProt P45983)
STK11 (human) = STK11 (human) (UniProt Q15831)
PDGFRB (human) = PDGFRB (human) (UniProt P09619)
[1] = system: FLT3 (human), P36888 [D835H]
TNIK (human) = TNIK (human) (UniProt Q9UKE5)
CLK3 (human) = CLK3 (human) (UniProt P49761)
DAPK2 (human) = DAPK2 (human) (UniProt Q9UIK4)
Sequence of DAPK2 (human) (Q9UIK4 whole entry, looked up): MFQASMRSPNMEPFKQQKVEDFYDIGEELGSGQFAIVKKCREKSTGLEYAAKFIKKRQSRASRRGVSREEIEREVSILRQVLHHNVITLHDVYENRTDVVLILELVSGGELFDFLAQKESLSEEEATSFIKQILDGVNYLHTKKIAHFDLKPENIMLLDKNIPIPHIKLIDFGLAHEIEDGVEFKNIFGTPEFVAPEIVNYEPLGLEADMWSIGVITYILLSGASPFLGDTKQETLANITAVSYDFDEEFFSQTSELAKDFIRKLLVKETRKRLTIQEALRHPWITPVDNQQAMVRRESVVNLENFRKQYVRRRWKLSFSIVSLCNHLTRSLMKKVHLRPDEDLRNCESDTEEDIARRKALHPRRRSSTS

RPS6KA6 KD2 (human) = RPS6KA6 KD2 (human) (UniProt Q9UK32)
CLK2 (human) = CLK2 (human) (UniProt P49760)
TAOK1 (human) = TAOK1 (human) (UniProt Q7L7X3)
Sequence of TAOK1 (human) (Q7L7X3 whole entry, looked up): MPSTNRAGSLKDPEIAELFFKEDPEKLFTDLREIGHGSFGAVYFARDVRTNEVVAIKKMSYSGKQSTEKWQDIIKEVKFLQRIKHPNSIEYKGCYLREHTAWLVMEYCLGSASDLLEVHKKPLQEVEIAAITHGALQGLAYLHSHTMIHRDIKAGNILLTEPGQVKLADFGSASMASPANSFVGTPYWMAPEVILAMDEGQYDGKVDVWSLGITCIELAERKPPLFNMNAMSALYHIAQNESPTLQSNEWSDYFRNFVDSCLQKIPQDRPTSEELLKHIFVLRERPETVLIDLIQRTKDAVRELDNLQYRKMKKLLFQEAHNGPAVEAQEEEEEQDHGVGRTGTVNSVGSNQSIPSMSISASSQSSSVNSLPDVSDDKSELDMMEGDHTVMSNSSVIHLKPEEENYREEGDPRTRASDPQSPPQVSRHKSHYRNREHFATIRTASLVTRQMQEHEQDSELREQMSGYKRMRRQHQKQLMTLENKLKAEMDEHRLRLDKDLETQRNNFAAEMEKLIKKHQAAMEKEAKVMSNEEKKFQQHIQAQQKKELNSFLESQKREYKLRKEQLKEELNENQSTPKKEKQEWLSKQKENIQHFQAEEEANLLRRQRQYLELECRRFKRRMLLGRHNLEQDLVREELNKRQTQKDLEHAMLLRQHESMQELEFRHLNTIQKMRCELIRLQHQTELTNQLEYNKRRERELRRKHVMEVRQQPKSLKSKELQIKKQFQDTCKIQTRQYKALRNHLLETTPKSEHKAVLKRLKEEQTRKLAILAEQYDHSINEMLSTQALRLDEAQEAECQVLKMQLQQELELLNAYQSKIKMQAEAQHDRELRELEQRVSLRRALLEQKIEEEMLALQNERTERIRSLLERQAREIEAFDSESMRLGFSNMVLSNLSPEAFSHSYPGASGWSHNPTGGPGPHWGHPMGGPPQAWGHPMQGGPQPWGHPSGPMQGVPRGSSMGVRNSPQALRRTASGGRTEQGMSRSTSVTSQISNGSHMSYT

PRKD3 (human) = PRKD3 (human) (UniProt O94806)
[2] = system: FLT3 (human), P36888 [D835Y]
[3] = system: KIT (human), P10721 [V559D]
Sequence of KIT (human), P10721 [V559D] (P10721 whole entry V559D, looked up): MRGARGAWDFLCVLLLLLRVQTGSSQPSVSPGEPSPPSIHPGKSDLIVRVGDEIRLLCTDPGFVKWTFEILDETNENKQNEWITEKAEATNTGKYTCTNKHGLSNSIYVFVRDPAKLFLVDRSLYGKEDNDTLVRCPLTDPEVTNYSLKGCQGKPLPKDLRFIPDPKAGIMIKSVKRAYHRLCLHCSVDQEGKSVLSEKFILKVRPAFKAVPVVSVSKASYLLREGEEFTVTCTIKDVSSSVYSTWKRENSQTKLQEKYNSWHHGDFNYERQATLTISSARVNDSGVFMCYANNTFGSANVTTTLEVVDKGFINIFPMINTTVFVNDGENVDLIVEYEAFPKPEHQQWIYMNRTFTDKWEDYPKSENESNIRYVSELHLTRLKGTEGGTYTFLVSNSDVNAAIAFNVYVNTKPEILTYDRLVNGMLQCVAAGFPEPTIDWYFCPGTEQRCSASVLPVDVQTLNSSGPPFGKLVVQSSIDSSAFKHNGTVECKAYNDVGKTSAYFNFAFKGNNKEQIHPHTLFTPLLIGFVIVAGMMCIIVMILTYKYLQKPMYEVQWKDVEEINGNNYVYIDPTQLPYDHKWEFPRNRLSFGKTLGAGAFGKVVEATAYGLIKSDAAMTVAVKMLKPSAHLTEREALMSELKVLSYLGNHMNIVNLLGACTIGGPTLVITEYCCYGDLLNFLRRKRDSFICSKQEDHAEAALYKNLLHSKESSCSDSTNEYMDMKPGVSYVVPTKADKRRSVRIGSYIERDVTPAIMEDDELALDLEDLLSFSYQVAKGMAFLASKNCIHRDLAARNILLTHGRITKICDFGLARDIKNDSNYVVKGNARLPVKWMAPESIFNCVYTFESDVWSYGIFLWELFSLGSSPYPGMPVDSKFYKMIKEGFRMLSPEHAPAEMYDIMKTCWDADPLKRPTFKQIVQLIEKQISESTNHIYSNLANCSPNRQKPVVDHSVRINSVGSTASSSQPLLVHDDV

[4] = system: EGFR (human), P00533 [747-751 del / S ins]
FLT3 (human) = FLT3 (human) (UniProt P36888)
STK33 (human) = STK33 (human) (UniProt Q9BYT3)
[5] = biological target: JAK1 JH2 pseudokinase (human) (UniProt P23458)
PIM2 (human) = PIM2 (human) (UniProt Q9P1W9)
RIPK4 (human) = RIPK4 (human) (UniProt P57078)
Sequence of RIPK4 (human) (P57078 whole entry, looked up): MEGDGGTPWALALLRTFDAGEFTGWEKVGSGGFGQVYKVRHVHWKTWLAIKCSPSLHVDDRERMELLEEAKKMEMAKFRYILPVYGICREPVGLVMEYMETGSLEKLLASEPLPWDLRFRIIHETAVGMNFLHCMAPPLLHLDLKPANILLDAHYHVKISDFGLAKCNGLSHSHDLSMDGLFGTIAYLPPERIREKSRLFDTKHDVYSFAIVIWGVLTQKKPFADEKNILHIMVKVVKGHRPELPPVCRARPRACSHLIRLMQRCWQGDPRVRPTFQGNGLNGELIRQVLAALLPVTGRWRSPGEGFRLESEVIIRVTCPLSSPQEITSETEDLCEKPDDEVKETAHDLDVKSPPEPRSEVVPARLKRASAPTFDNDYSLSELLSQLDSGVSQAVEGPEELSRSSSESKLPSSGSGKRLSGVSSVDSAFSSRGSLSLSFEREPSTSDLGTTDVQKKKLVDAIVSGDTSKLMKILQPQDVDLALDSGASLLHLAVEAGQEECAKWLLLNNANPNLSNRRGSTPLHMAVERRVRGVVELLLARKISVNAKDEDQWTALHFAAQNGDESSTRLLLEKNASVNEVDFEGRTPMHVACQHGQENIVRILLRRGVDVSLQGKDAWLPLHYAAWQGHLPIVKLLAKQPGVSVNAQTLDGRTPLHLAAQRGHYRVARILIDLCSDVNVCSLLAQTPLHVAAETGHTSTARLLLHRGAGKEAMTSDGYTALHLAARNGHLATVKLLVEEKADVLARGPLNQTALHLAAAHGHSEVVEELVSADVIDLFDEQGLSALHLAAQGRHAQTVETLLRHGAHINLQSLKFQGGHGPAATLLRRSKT

MAP2K4 (human) = MAP2K4 (human) (UniProt P45985)
MKNK1 (human) = MKNK1 (human) (UniProt Q9BUB5)
CAMKK1 (human) = CAMKK1 (human) (UniProt Q8N5S9)
[6] = biological target: TYK2 JH2 pseudokinase (human) (UniProt P29597)
SRPK2 (human) = SRPK2 (human) (UniProt P78362)
ULK2 (human) = ULK2 (human) (UniProt Q8IYT8)
TNK1 (human) = TNK1 (human) (UniProt Q13470)
Sequence of TNK1 (human) (Q13470 whole entry, looked up): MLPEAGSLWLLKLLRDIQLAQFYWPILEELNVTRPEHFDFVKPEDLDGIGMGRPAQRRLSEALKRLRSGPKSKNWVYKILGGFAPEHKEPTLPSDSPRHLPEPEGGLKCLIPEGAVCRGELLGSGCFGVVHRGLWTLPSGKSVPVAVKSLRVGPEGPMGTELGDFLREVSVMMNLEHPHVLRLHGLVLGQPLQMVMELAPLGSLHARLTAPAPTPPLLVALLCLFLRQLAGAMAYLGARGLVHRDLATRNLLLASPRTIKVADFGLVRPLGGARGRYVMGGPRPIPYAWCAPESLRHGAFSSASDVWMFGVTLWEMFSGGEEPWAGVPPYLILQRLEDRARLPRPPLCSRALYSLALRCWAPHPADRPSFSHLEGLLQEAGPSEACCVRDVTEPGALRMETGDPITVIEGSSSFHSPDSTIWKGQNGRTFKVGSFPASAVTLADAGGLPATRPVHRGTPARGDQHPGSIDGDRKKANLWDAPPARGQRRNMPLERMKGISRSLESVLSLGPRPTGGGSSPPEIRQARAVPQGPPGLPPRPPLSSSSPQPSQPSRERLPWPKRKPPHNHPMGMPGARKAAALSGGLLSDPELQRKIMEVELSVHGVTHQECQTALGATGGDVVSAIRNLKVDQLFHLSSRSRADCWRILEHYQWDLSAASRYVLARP

GAK (human) = GAK (human) (UniProt O14976)
[7] = system: KIT (human), P10721 [V559D/V654A]
Sequence of KIT (human), P10721 [V559D/V654A] (P10721 whole entry V559D/V654A, looked up): as the sequence (P10721 whole entry V559D, looked up) above, with V654A counted along it

STK16 (human) = STK16 (human) (UniProt O75716)
CSNK1G3 (human) = CSNK1G3 (human) (UniProt Q9Y6M4)
TLK1 (human) = TLK1 (human) (UniProt Q9UKI8)
TTK (human) = TTK (human) (UniProt P33981)
STK24 (human) = STK24 (human) (UniProt Q9Y6E0)
ACVR1 (human) = ACVR1 (human) (UniProt Q04771)
[8] = system: FLT3 (human), P36888 [ITD]
MELK (human) = MELK (human) (UniProt Q14680)
MAP2K3 (human) = MAP2K3 (human) (UniProt P46734)
SRPK3 (human) = SRPK3 (human) (UniProt Q9UPE1)
RPS6KA1 KD2 (human) = RPS6KA1 KD2 (human) (UniProt Q15418)
[9] = system: KIT (human), P10721 [V559D/T670I]
Sequence of KIT (human), P10721 [V559D/T670I] (P10721 whole entry V559D/T670I, looked up): as the sequence (P10721 whole entry V559D, looked up) above, with T670I counted along it

CLK4 (human) = CLK4 (human) (UniProt Q9HAZ1)
[10] = system: EGFR (human), P00533 [G719S]

Sequence of PDGFRB (human) (P09619 whole entry, looked up): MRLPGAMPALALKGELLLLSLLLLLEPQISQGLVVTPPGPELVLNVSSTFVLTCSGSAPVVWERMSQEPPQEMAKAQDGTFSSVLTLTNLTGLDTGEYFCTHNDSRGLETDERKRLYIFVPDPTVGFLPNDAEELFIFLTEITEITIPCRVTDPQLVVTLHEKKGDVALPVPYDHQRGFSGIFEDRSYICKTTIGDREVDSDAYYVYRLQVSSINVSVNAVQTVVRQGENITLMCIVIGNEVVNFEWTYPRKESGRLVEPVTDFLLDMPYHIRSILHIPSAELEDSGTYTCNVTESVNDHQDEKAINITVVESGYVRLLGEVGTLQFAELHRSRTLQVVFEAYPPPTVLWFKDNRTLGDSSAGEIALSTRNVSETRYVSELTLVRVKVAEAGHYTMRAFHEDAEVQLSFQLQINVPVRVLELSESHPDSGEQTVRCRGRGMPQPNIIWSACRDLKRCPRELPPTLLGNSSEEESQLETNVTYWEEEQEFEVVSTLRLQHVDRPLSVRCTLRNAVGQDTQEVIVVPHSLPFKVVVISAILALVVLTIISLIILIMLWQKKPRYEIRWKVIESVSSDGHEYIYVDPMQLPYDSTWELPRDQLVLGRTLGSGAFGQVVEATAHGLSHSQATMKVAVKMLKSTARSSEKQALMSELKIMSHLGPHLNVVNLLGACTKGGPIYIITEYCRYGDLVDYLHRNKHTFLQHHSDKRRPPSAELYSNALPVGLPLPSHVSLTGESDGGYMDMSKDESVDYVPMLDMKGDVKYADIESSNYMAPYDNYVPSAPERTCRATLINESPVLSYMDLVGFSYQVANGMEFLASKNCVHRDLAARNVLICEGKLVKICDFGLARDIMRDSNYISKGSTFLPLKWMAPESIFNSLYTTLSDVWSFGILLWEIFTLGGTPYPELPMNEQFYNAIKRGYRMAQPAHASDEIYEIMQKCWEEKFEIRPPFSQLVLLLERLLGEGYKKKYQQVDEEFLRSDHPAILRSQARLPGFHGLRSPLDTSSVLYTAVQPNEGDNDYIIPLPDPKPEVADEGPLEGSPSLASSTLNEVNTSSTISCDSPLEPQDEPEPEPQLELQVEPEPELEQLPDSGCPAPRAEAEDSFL

- kinase still bound, per cent of control (MAPK8 (human)): 86%
- kinase still bound, per cent of control (STK11 (human)): 100%
- kinase still bound, per cent of control (PDGFRB (human)): 98%
- kinase still bound, per cent of control [1]: 86%
- kinase still bound, per cent of control (TNIK (human)): 90%
- kinase still bound, per cent of control (CLK3 (human)): 100%
- kinase still bound, per cent of control (DAPK2 (human)): 84%
- kinase still bound, per cent of control (RPS6KA6 KD2 (human)): 60%
- kinase still bound, per cent of control (CLK2 (human)): 81%
- kinase still bound, per cent of control (TAOK1 (human)): 100%
- kinase still bound, per cent of control (PRKD3 (human)): 85%
- kinase still bound, per cent of control [2]: 75%
- kinase still bound, per cent of control [3]: 95%
- kinase still bound, per cent of control [4]: 92%
- kinase still bound, per cent of control (FLT3 (human)): 96%
- kinase still bound, per cent of control (STK33 (human)): 58%
- kinase still bound, per cent of control [5]: 97%
- kinase still bound, per cent of control (PIM2 (human)): 100%
- kinase still bound, per cent of control (RIPK4 (human)): 100%
- kinase still bound, per cent of control (MAP2K4 (human)): 98%
- kinase still bound, per cent of control (MKNK1 (human)): 100%
- kinase still bound, per cent of control (CAMKK1 (human)): 73%
- kinase still bound, per cent of control [6]: 100%
- kinase still bound, per cent of control (SRPK2 (human)): 100%
- kinase still bound, per cent of control (ULK2 (human)): 100%
- kinase still bound, per cent of control (TNK1 (human)): 4.9%
- kinase still bound, per cent of control (GAK (human)): 45%
- kinase still bound, per cent of control [7]: 100%
- kinase still bound, per cent of control (STK16 (human)): 100%
- kinase still bound, per cent of control (CSNK1G3 (human)): 98%
- kinase still bound, per cent of control (TLK1 (human)): 97%
- kinase still bound, per cent of control (TTK (human)): 95%
- kinase still bound, per cent of control (STK24 (human)): 100%
- kinase still bound, per cent of control (ACVR1 (human)): 100%
- kinase still bound, per cent of control [8]: 92%
- kinase still bound, per cent of control (MELK (human)): 80%
- kinase still bound, per cent of control (MAP2K3 (human)): 92%
- kinase still bound, per cent of control (SRPK3 (human)): 68%
- kinase still bound, per cent of control (RPS6KA1 KD2 (human)): 56%
- kinase still bound, per cent of control [9]: 84%
- kinase still bound, per cent of control (CLK4 (human)): 99%
- kinase still bound, per cent of control [10]: 90%
Compound: COc1cc(N2CCN(C)CC2)ccc1Nc1ncc2c(n1)N(C)c1ccccc1N(C)C2=O

- kinase still bound, per cent of control (MAPK8 (human)): 86%
- kinase still bound, per cent of control (STK11 (human)): 90%
- kinase still bound, per cent of control (PDGFRB (human)): 51%
- kinase still bound, per cent of control [1]: 80%
- kinase still bound, per cent of control (TNIK (human)): 55%
- kinase still bound, per cent of control (CLK3 (human)): 93%
- kinase still bound, per cent of control (DAPK2 (human)): 50%
- kinase still bound, per cent of control (RPS6KA6 KD2 (human)): 6%
- kinase still bound, per cent of control (CLK2 (human)): 78%
- kinase still bound, per cent of control (TAOK1 (human)): 18%
- kinase still bound, per cent of control (PRKD3 (human)): 5.8%
- kinase still bound, per cent of control [2]: 74%
- kinase still bound, per cent of control [3]: 71%
- kinase still bound, per cent of control [4]: 66%
- kinase still bound, per cent of control (FLT3 (human)): 99%
- kinase still bound, per cent of control (STK33 (human)): 1.2%
- kinase still bound, per cent of control [5]: 78%
- kinase still bound, per cent of control (PIM2 (human)): 86%
- kinase still bound, per cent of control (RIPK4 (human)): 95%
- kinase still bound, per cent of control (MAP2K4 (human)): 71%
- kinase still bound, per cent of control (MKNK1 (human)): 77%
- kinase still bound, per cent of control (CAMKK1 (human)): 57%
- kinase still bound, per cent of control [6]: 43%
- kinase still bound, per cent of control (SRPK2 (human)): 100%
- kinase still bound, per cent of control (ULK2 (human)): 1.2%
- kinase still bound, per cent of control (TNK1 (human)): 7%
- kinase still bound, per cent of control (GAK (human)): 24%
- kinase still bound, per cent of control [7]: 91%
- kinase still bound, per cent of control (STK16 (human)): 81%
- kinase still bound, per cent of control (CSNK1G3 (human)): 82%
- kinase still bound, per cent of control (TLK1 (human)): 74%
- kinase still bound, per cent of control (TTK (human)): 13%
- kinase still bound, per cent of control (STK24 (human)): 72%
- kinase still bound, per cent of control (ACVR1 (human)): 94%
- kinase still bound, per cent of control [8]: 99%
- kinase still bound, per cent of control (MELK (human)): 70%
- kinase still bound, per cent of control (MAP2K3 (human)): 39%
- kinase still bound, per cent of control (SRPK3 (human)): 67%
- kinase still bound, per cent of control (RPS6KA1 KD2 (human)): 24%
- kinase still bound, per cent of control [9]: 82%
- kinase still bound, per cent of control (CLK4 (human)): 66%
- kinase still bound, per cent of control [10]: 72%
Compound: COc1cc(N2CCN(C)CC2)ccc1Nc1ncc2c(n1)N(C)c1sccc1C(=O)N2C

- kinase still bound, per cent of control (MAPK8 (human)): 100%
- kinase still bound, per cent of control (STK11 (human)): 100%
- kinase still bound, per cent of control (PDGFRB (human)): 80%
- kinase still bound, per cent of control [1]: 100%
- kinase still bound, per cent of control (TNIK (human)): 100%
- kinase still bound, per cent of control (CLK3 (human)): 100%
- kinase still bound, per cent of control (DAPK2 (human)): 100%
- kinase still bound, per cent of control (RPS6KA6 KD2 (human)): 100%
- kinase still bound, per cent of control (CLK2 (human)): 96%
- kinase still bound, per cent of control (TAOK1 (human)): 75%
- kinase still bound, per cent of control (PRKD3 (human)): 90%
- kinase still bound, per cent of control [2]: 79%
- kinase still bound, per cent of control [3]: 89%
- kinase still bound, per cent of control [4]: 86%
- kinase still bound, per cent of control (FLT3 (human)): 100%
- kinase still bound, per cent of control (STK33 (human)): 100%
- kinase still bound, per cent of control [5]: 100%
- kinase still bound, per cent of control (PIM2 (human)): 100%
- kinase still bound, per cent of control (RIPK4 (human)): 96%
- kinase still bound, per cent of control (MAP2K4 (human)): 86%
- kinase still bound, per cent of control (MKNK1 (human)): 100%
- kinase still bound, per cent of control (CAMKK1 (human)): 100%
- kinase still bound, per cent of control [6]: 61%
- kinase still bound, per cent of control (SRPK2 (human)): 100%
- kinase still bound, per cent of control (ULK2 (human)): 89%
- kinase still bound, per cent of control (TNK1 (human)): 92%
- kinase still bound, per cent of control (GAK (human)): 100%
- kinase still bound, per cent of control [7]: 100%
- kinase still bound, per cent of control (STK16 (human)): 85%
- kinase still bound, per cent of control (CSNK1G3 (human)): 100%
- kinase still bound, per cent of control (TLK1 (human)): 86%
- kinase still bound, per cent of control (TTK (human)): 95%
- kinase still bound, per cent of control (STK24 (human)): 100%
- kinase still bound, per cent of control (ACVR1 (human)): 91%
- kinase still bound, per cent of control [8]: 100%
- kinase still bound, per cent of control (MELK (human)): 99%
- kinase still bound, per cent of control (MAP2K3 (human)): 84%
- kinase still bound, per cent of control (SRPK3 (human)): 100%
- kinase still bound, per cent of control (RPS6KA1 KD2 (human)): 94%
- kinase still bound, per cent of control [9]: 75%
- kinase still bound, per cent of control (CLK4 (human)): 100%
- kinase still bound, per cent of control [10]: 95%
Compound: CN1CCN(c2ccc(C(=O)Nc3ncc4c(n3)N(C)c3ccccc3C(=O)N4C)cc2)CC1
